The record followed here is patent publication US20090005374A1, “IMIDAZOPYRIDINYL THIAZOLYL HISTONE DEACETYLASE INHIBITORS” (priority 2007, published 2009).

One series has as its target HDAC 1 (Homo sapiens, UniProt Q13547). Put plainly: HDAC 1 fluorogenic peptide substrate assay with 3-hour enzyme/compound preincubation. The note with it: 3-hour preincubation of enzyme and compound; read-out: HDAC 1 inhibitory activity (IC50) 3-hour preincubation. It counts as biochemical. The method, then:
The second assay is similar to the first assay described above, except that preincubation is carried out for about 3 hours after the enzyme is introduced. The test compound was suspended in, and titrated in DMSO. It was then spotted into a 384-well test plate. The enzyme, HDAC 1 or 6, was diluted in the same assay buffer as used in the previous assay and added to the pre-spotted compound. The enzyme/compound mix was incubated at room temperature for about 3 hours. The peptide substrate containing a fluorophore/quencher pair was diluted in the assay buffer and added to the compound/enzyme mix initiating the reaction. The reaction incubated at room temperature for 45 minutes. A concentrated developer solution was diluted in the assay buffer, and added to the reaction. The reaction was incubated at room temperature for about 15 minutes and relative fluorescence was read on an instrument reader.

Sequence of HDAC 1 (Q13547 whole entry, species assumed): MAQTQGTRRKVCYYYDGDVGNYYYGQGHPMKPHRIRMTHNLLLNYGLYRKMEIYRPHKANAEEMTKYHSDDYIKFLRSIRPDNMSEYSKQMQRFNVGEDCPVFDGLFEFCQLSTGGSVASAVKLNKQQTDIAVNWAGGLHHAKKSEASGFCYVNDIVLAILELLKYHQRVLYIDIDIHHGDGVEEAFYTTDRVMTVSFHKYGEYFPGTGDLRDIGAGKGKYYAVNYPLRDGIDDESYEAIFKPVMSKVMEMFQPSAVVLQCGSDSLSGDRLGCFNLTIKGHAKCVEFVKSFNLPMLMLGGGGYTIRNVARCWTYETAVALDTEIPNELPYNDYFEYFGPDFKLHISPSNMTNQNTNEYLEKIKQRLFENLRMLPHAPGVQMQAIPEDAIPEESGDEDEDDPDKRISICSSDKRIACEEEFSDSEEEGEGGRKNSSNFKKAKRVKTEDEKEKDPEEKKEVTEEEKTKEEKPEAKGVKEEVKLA

In general, melting point refers to the temperature of the solid-liquid transition. The term IC50 denotes the concentration at which inhibition is half-maximal. Consider `Cc1nc2ccccn2c1-c1nc(Nc2ccc(C(=O)NO)cc2)sc1C` [Example 5, N-Hydroxy-4-[5-methyl-4-(2-methyl-imidazo[1,2-a]pyridin-3-yl)-thiazol-2-ylamino]-benzamide], for which the melting point stood at 200.5 °C. Also, the IC50 at HDAC 1 stood at 53.9 nM.
The like results for `Cc1nc2ccccn2c1-c1nc(Nc2ccc(C(=O)Nc3ccccc3N)cc2)sc1C` [Example 6, N-(2-Amino-phenyl)-4-[5-methyl-4-(2-methyl-imidazo[1,2-a]pyridin-3-yl)-thiazol-2-ylamino]-benzamide] were, in that order, 250.1 °C and 21.5 nM.
On to `Cc1nc2ccc(Cl)cn2c1-c1csc(Nc2ccc(C(=O)NO)cc2)n1` [Example 7, 4-[4-(6-Chloro-2-methyl-imidazo[1,2-a]pyridin-3-yl)-thiazol-2-ylamino]-N-hydroxy-benzamide], for which the IC50 on HDAC 1 worked out at 22 nM.
Same read-out and setting: with `Cc1nc2ccc(Cl)cn2c1-c1csc(Nc2ccc(C(=O)Nc3ccccc3N)cc2)n1` [Example 8, N-(2-Amino-phenyl)-4-[4-(6-chloro-2-methyl-imidazo[1,2-a]pyridin-3-yl)-thiazol-2-ylamino]-benzamide] the figure was 51 nM.
In the case of `Cc1nc2ccc(C(F)(F)F)cn2c1-c1csc(Nc2ccc(C(=O)NO)cc2)n1` [Example 9, N-Hydroxy-4-[4-(2-methyl-6-trifluoromethyl-imidazo[1,2-a]pyridin-3-yl)-thiazol-2-ylamino]-benzamide], the melting point was found to be 183.2 °C. The IC50 at HDAC 1 was 154 nM.
In the case of `Cc1nc2ccc(C(F)(F)F)cn2c1-c1csc(Nc2ccc(C(=O)Nc3ccccc3N)cc2)n1` [Example 10, N-(2-Amino-phenyl)-4-[4-(2-methyl-6-trifluoromethyl-imidazo[1,2-a]pyridin-3-yl)-thiazol-2-ylamino]-benzamide], the IC50 at HDAC 1 was found to be 59 nM.
In turn, `COc1ccn2c(-c3csc(Nc4ccc(C(=O)Nc5ccccc5N)cc4)n3)c(C)nc2c1` [Example 11, N-(2-Amino-phenyl)-4-[4-(7-methoxy-2-methyl-imidazo[1,2-a]pyridin-3-yl)-thiazol-2-ylamino]-benzamide] yielded a melting point of 159.7 °C. For the same molecule, the IC50 at HDAC 1 turned out to be 56.9 nM.
Regarding `COc1ccn2c(-c3csc(Nc4ccc(C(=O)NO)cc4)n3)c(C)nc2c1` [Example 12, N-Hydroxy-4-[4-(7-methoxy-2-methyl-imidazo[1,2-a]pyridin-3-yl)-thiazol-2-ylamino]-benzamide], on HDAC 1, the IC50 worked out at 62.6 nM.
Consider `Nc1ncccc1NC(=O)c1ccc(Nc2nc(-c3cnc4ccccn34)cs2)cc1` [Example 16, N-(2-Amino-pyridin-3-yl)-4-(4-imidazo[1,2-a]pyridin-3-yl-thiazol-2-ylamino)-benzamide], for which, at HDAC 1, the IC50 turned out to be 9130 nM.
`Cc1sc(Nc2ccc(C(=O)Nc3ccccc3N)cc2)nc1-c1cnc2ccccn12` [Example 17, N-(2-Amino-phenyl)-4-(4-imidazo[1,2-a]pyridin-3-yl-5-methyl-thiazol-2-ylamino)-benzamide] showed a melting point of 186.5 °C. For the same molecule, the IC50 on HDAC 1 amounted to 24.6 nM.
The like results for `Cc1sc(Nc2ccc(C(=O)NO)cc2)nc1-c1cnc2ccccn12` [Example 18, N-Hydroxy-4-(4-imidazo[1,2-a]pyridin-3-yl-5-methyl-thiazol-2-ylamino)-benzamide] were, in that order, 262.6 °C and 46.7 nM.
In the case of `Cc1sc(Nc2ccc(C(=O)Nc3nn(-c4ccccc4)cc3N)cc2)nc1-c1cnc2ccccn12` [Example 19, N-(4-Amino-1-phenyl-1H-pyrazol-3-yl)-4-(4-imidazo [1,2-a]pyridin-3-yl-5-methyl-thiazol-2-ylamino)-benzamide], at HDAC 1, the IC50 turned out to be 6030 nM.
With `Nc1ccccc1NC(=O)c1ccc(Nc2ncc(-c3cnc4ccccn34)s2)cc1` [Example 20, N-(2-Amino-phenyl)-4-(5-imidazo[1,2-a]pyridin-3-yl-thiazol-2-ylamino)-benzamide], the IC50 at HDAC 1 was found to be 48 nM.
`Cc1nc2ccccn2c1-c1csc(N(CC(F)(F)F)c2ccc(C(=O)Nc3ccccc3N)cc2)n1` [Example 21a, N-(2-Amino-phenyl)-4-[[4-(2-methyl-imidazo[1,2-a]pyridin-3-yl)-thiazol-2-yl]-(2,2,2-trifluoro-ethyl)-amino]-benzamide]: the IC50 on HDAC 1 came out at 147 nM.
For `Cc1nc2ccccn2c1-c1csc(N(CC(F)(F)F)c2ccc(C(=O)NO)cc2)n1` [Example 21b, N-Hydroxy-4-[[4-(2-methyl-imidazo[1,2-a]pyridin-3-yl)-thiazol-2-yl]-(2,2,2-trifluoro-ethyl)-amino]-benzamide], on HDAC 1, the IC50 came out at 5580 nM.
